Measured values taken from patent US11938098B2, “Method for killing HIV-infected cells using Bcl-2 inhibitors” (Mayo Foundation for Medical Education and Research, priority 2015, dated 2024).

How the values were obtained:
[1] = tested on: Primary CD4 T cells from uninfected donors; experiment: Viability of primary uninfected CD4 T cells by flow cytometry; type: cell-based, human; conditions: N=7, 1 μM, Day 5
Text: (§1) Jurkat cells and HEK 293T cells were obtained from American Type Culture Collection (Manassas, Va.). Jurkat/Bcl-2 cells were created by transfecting Jurkat with a pcDNA-3 encoding Bcl-2 (obtained from Dr. Stan Korsmeyer), selecting for 30 days, and assessing Bcl-2 expression by immunoblotting. HIV-uninfected PBMCs were harvested by ficoll gradient centrifugation from Leukocyte Reduction System apheresis chambers provided by healthy volunteer blood donors. […]
(§2) Immunophenotyping of T cell subsets was performed using multicolor flow cytometry with monoclonal antibodies to human CD3 (Alexa700, BD Pharmingen), CD4 (FITC, BD Pharmingen), CD8 (Pacific Blue, BD Pharmingen), CD27 (PE, BD Pharmingen), and CD45RO (ECD, Beckman Coulter). […] Intracellular expression of Casp8p41 was assessed as described elsewhere (Cummins et al., AIDS Res. Hum. Retroviruses, 30:476-479 (2014)). Cell death was measured using LIVE/DEAD® Fixable Aqua dead cell stain (Invitrogen) or TUNEL (Roche) according to manufacturers' protocols. Cell proliferation was measured using a CellTrace™ CFSE Cell Proliferation Kit (Life Technologies) according to manufacturer's protocol. […] FACS data were analyzed using FlowJo software (Tree Star Inc).

[2] = tested on: latently HIV infected CD4 T cells; experiment: Ex vivo HIV reactivation (αCD3/αCD28) in CD4 T cells from suppressed HIV-infected patients; type: cell-based, human
Method: FIGS. 10A-10E. Selective Bcl-2 inhibition reduces HIV DNA associated with cells after viral reactivation ex vivo. […] After 72 hours, cell associated HIV DNA was measured. FIG. 10B, Freshly obtained peripheral CD4 T cells from an additional 16 suppressed HIV-infected patients were treated with ABT-199 or DMSO followed by αCD3/αCD28 for 72 hours before cell associated HIV DNA was measured. Depicted is the ratio of HIV DNA in ABT-199 treated vs. diluent treated samples for each patient with measurable HIV DNA in the diluent sample (n=11). FIG. 10C, Primary CD4 T cells from HIV-infected subjects were treated with ABT-199 or diluent and assayed for intracellular Casp8p41 and active caspase 3 in the TCM subset. Representative data of three independent subjects. FIG. 10D, Primary CD4 T cells from four HIV-infected subjects were treated with venetoclax or diluent and induced to reactivate HIV using CD3/CD28, and cell death measured in HIV P24 positive or negative cells using activated caspase 3 staining. FIG. 10E, HIV RNA was measured in cell culture supernatant from 6 of the 11 patient experiments from FIG. 10B.
Jurkat and Jurkat/Bcl-2 cells were infected overnight, while primary PHA-activated CD4 T cells were infected for 6 hours with HIV-1IIIb (NIH AIDS Reagent Program). Aliquots of the same infectious supernatant were used for all experiments. Cells were then washed three times and incubated in fresh medium. At the indicated time points, HIV-1 p24 in the cell culture supernatant was measured by RETROTEK™ ELISA kits (Zeptometrix Corporation) according to manufacturer's protocol. […] Briefly, total DNA was extracted using the Qiagen DNeasy Blood and Tissue kit (Hilden, Germany) and analyzed by a real-time polymerase chain reaction (PCR) assay specific for HIV-LTR and β-globin. […] Total HIV-1 DNA was compared and normalized with genomic DNA, determined by β-globin. HIV-1 proviral DNA levels were expressed as HIV-1 copies/β-globin genomic equivalent of 10^6 cells.

[3] = tested on: Primary CD4 T cells from uninfected donors; experiment: Mitogen-induced proliferation of uninfected CD4 T cells by CFSE staining; type: cell-based, human; conditions: phytohemagglutinin, 1 μM, Day 3
Text: as §1, §2

[4] = in vivo; cited from earlier work
[5] = cited from earlier work
HIV-1IIIb = experiment: Acute HIVIIIb infection of primary CD4 T cells in vitro (viability, p24, cell associated HIV DNA); type: cell-based
Text: as §1
as §2, with “Inc). […]” for “Inc).”

[6] = tested on: Primary CD4 T cells from ART-suppressed HIV positive patients; experiment: Viability by trypan blue exclusion of CD4 T cells from ART-suppressed HIV positive patients; type: cell-based, human; conditions: bulk primary CD4 T cells from HIV infected ART suppressed patients; 1 μM; 24 hours
Method: FIGS. 11A-11D. […] FIG. 11A, Jurkat T cells pretreated with increasing concentrations of venetoclax or diluent DMSO were transfected with EGFP-Casp8p41, vector control, or no DNA, and assayed for cell death by TUNEL. Data are representative of three independent experiments. FIG. 11B, Primary CD4 T cells from seven uninfected donors were treated with venetoclax (1 μM) or diluent, and assayed for cell viability by flow cytometry over 5 days. FIG. 11C, Primary CD4 T cells from four uninfected donors were stimulated with phytohemagglutinin (2 μg/mL) in the presence of venetoclax (1 μM) or diluent and assayed for proliferation by CFSE staining. FIG. 11D, Primary CD4 T cells from seven ART-suppressed HIV positive patients were treated with venetoclax (1 μM) or DMSO control for 24 hours and assessed for viability by trypan blue exclusion.

Jurkat T cells = experiment: TUNEL cell death in Jurkat T cells transfected with EGFP-Casp8p41, vector control or no DNA; type: cell-based; conditions: Jurkat cells expressing eGFP-Casp8p41, 1 μM
Method: HEK 293T cells were transfected using Lipofectamine (Invitrogen, Carlsbad, Calif.) according to manufacturer's protocol. Jurkat cells were transfected using a square wave electroporator (BXT, San Diego, Calif.) at 320 V. Immunophenotyping of T cell subsets was performed using multicolor flow cytometry with monoclonal antibodies to human CD3 (Alexa700, BD Pharmingen), CD4 (FITC, BD Pharmingen), CD8 (Pacific Blue, BD Pharmingen), CD27 (PE, BD Pharmingen), and CD45RO (ECD, Beckman Coulter). Central memory T cells (TCM) were defined as CD3^+CD4^+CD27^+CD45RO^+, and effector memory T cells (TEM) were defined as CD3^+CD4^+CD27^−CD45RO^+/− (Brenchley et al., J. Exp. Med., 200:749-759 (2004)). Intracellular expression of Casp8p41 was assessed as described elsewhere (Cummins et al., AIDS Res. Hum. Retroviruses, 30:476-479 (2014)). Cell death was measured using LIVE/DEAD® Fixable Aqua dead cell stain (Invitrogen) or TUNEL (Roche) according to manufacturers' protocols. Cell proliferation was measured using a CellTrace™ CFSE Cell Proliferation Kit (Life Technologies) according to manufacturer's protocol. FACS analysis was performed on either a FACScan or LSRII flow cytometer (BD Biosciences) based on multiparameter needs. FACS data were analyzed using FlowJo software (Tree Star Inc).

[7] = tested on: Jurkat T cells stably expressing eGFP; experiment: Apoptosis and marker loss in Jurkat T cells stably expressing eGFP treated with CPT; type: cell-based
Method: FIGS. 12A-12G. Apoptotic cell death is associated with loss of protein and mRNA markers. Jurkat T cells stably expressing eGFP were treated with DMSO or CPT and assessed for cell viability by ATP content (FIG. 12A) and light scatter (FIG. 12B) over time. FIG. 12C, Expression of eGFP was measured by flow cytometry. FIG. 12D, Actin mRNA expression was assessed by qRT-PCR and expressed as mean Ct values normalized to baseline DMSO control. FIGS. 12E-12G, Cell death was assessed by active-caspase 3 expression (FIG. 12E), TUNEL (FIG. 12F), and LIVE/DEAD viability stain (FIG. 12G) and compared between eGFP positive and eGFP negative cells. FIG. 12A-12D values represent mean (range) of two independent experiments. FIGS. 12E-12G are representative of two independent experiments.
If BCL-2 neutralizes Casp8p41, then antagonizing BCL-2 should augment Casp8p41-induced killing, including when Casp8p41 is generated by latently HIV infected cells that reactivate the virus. Before testing this possibility, whether select markers (protein or nucleic acid based) remain detectable was first assessed when the cell of interest is undergoing death. Jurkat T cells stably expressing eGFP were treated with vehicle control or the cytotoxic quinolone alkaloid CPT to induce apoptosis, then examined for expression of eGFP (as a prototypic cytoplasmic protein) and actin mRNA (as a prototypic mRNA) over time.

Bcl-2 = experiment: SPR binding of Casp8p41 to purified recombinant Bcl-2; conditions: Bcl-2 Arg146Ala vs Bcl-2, SPR
Method: After plasmids encoding GST tagged proteins were transformed into E. coli BL21 or DH5α by heat shock, bacteria were grown to an optical density of 0.8 and induced with 1 mM IPTG for 3 hours at 37° C. Bacteria were disrupted by freezing and thawing in calcium- and magnesium-free Dulbecco's phosphate buffered saline (PBS) containing 0.1% Triton X-100, 2 μg/mL aprotinin, 10 μg/mL leupeptin, 2 μg/mL pepstatin, and 1 mM PMSF, then sonicated three times for 15 sec/min on ice. GST-tagged proteins were purified with glutathione-agarose (Thermo Fisher Scientific, Rockford, Ill.).
Proteins for SPR were further purified by FPLC on Superdex 5200, concentrated in a centrifugal concentrator (Centricon, Millipore), dialyzed against Biacore buffer (10 mM HEPES (pH 7.4), 150 mM NaCl, 0.05 mM EDTA, and 0.005% (w/v) Polysorbate 20) and stored at 4° C. for <48 hours before use. Binding assays were performed at 25° C. on a Biacore 3000 biosensor after proteins were immobilized on a CMS chip (GE Healthcare). Ligands were injected at 30 μL/minute for 1 minute in Biacore buffer. Bound protein was allowed to dissociate in Biacore buffer at 30 μL/minute for 10 minutes and then desorbed with 2 M MgCl2. Binding kinetics were derived using BIA evaluation software (Biacore, Uppsala, Sweden).

CC1(C)CCC(CN2CCN(c3ccc(C(=O)NS(=O)(=O)c4ccc(NCC5CCOCC5)c([N+](=O)[O-])c4)c(Oc4cnc5[nH]ccc5c4)c3)CC2)=C(c2ccc(Cl)cc2)C1 [venetoclax]
viability, mean difference vs control treated cells [1]: −7.2±4.8% | samples exhibiting a decrease of cell associated HIV DNA ([2]; freshly isolated primary CD4 T cell samples, 8 of 11): 73% | median cell death (active caspase 3) in p24− cells ([2]; αCD3/αCD28 reactivated, control 2.5%, P=0.189): 10.3% | proportion of HIV p24+ CD4+ cells that are active caspase 3+ ([2]; αCD3/αCD28 reactivated, control 23%, P=0.026): 47 % active caspase 3+ | mean difference in percent CFSE low cells [3]: -1.1±7.9% | peak plasma levels [4]: up to 5 μM | cases of dose limiting neutropenia ([5]; 40 NHL patients receiving monotherapy): 2 cases | tolerability in early phase clinical trials ([5]; human, in vivo): well tolerated | survival or mitogen-induced proliferation of mock-infected CD4 T cells (HIV-1IIIb): had no effect | viability, mean difference vs DMSO control [6]: −4.7±1.6 % viable | increase in cell death, mean difference vs diluent (Jurkat T cells): 25.7±10.3%

CC[C@@]1(O)C(=O)OCc2c1cc1n(c2=O)Cc2cc3ccccc3nc2-1 [CPT, camptothecin]
eGFP negative cells ([7]; by 48 hours): 97% | cell viability by cellular ATP content and light scatter ([7]; compared to diluent-treated cells): decreased cell viability | reduction of detectable actin message compared to diluent control ([7]; qRT-PCR): 34% | detectable eGFP (eGFP+ cells) ([7]; {}): 17 % eGFP+

DMNLLDIFIEMEKRVILGEGKLDILKRVCAQ (Casp8p41 BH3-like peptide) [Casp8p41 activator peptide]
decrease of affinity of Bcl-2 by substitution of Ala for Bcl-2 Arg146 (Bcl-2): 250 fold
